According to ChEMBL document CHEMBL1687692, “Exploring α7-Nicotinic Receptor Ligand Diversity by Scaffold Enumeration from the Chemical Universe Database GDB” (ACS Med Chem Lett, 2010):

Experiments:
[1] = molecular target: T1, Neuronal acetylcholine receptor subunit alpha-7 (Homo sapiens, UniProt P36544); assay: Competitive antagonist activity at human alpha7 nAChR expressed in Xenopus oocyte assessed as inhibition of ACh-induced current by voltage clamp method; format: functional
[2] = molecular target: T1, Neuronal acetylcholine receptor subunit alpha-7; assay: Non competitive antagonist activity at human alpha7 nAChR expressed in Xenopus oocyte assessed as inhibition of ACh-induced current by voltage clamp method; format: functional
[3] = molecular target: T1, Neuronal acetylcholine receptor subunit alpha-7; assay: Antagonist activity at human alpha7 nAChR expressed in Xenopus oocyte assessed as inhibition of ACh-induced current by voltage clamp method; format: functional
[4] = molecular target: T1, Neuronal acetylcholine receptor subunit alpha-7; assay: Binding affinity to human alpha7 nAChR
[5] = molecular target: T1, Neuronal acetylcholine receptor subunit alpha-7; assay: Partial agonist activity at human alpha7 nAChR expressed in Xenopus oocyte […] current by voltage clamp method; format: functional

T1 sequence (P36544 whole entry): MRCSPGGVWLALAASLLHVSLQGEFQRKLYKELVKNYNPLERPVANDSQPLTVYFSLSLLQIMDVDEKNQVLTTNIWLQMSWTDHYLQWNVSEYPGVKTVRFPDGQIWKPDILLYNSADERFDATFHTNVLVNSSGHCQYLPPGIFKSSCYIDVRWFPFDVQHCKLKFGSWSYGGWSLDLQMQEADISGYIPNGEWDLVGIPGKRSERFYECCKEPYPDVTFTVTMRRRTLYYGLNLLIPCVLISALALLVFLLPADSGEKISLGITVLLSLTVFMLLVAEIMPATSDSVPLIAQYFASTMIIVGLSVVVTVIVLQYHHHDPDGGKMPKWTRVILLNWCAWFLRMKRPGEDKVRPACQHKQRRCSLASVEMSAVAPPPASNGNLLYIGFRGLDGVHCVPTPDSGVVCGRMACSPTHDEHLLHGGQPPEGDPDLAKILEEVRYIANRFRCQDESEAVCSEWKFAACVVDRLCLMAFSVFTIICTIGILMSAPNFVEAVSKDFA

Structure (SMILES): O=C(Oc1ccc(Br)cc1)N1CCCN2CCC[C@H]2C1
- IC50 [1]: 5.6 µM

Structure (SMILES): C[C@H]1CN2CCCC[C@@H]2CN1C(=O)c1ccc2c(c1)OCCO2
- IC50 [2]: 6.1 µM

Structure (SMILES): CC(C)N1CCCCN(C(=O)c2ccc(Cl)cc2)CC1
- IC50 [3]: 7 µM

Structure (SMILES): O=C(NCC12CCCN1CCC2)c1ccc(Cl)cc1
- IC50 [3]: 7.2 µM

Structure (SMILES): O=C(Oc1ccc(Br)cc1)N1CCN2CCC1CC2 [SSR180711]
- Ki [4]: 0.014 µM
- EC50 [5]: 4.4 µM
